Experiment: Copper corrosion rate by linear polarization resistance
Settings: for No FRC Corrosion Rate (mpy) / 1 ppm FRC Corrosion Rate (mpy): copper coupons, 5 ppm inhibitor, pH 7.0, 45° C.; for No FRC Corrosion Rate (mpy): absence of bleach, average over 20 to 24 hour period; for 1 ppm FRC Corrosion Rate (mpy): bleach maintained at 1 ppm FRC
Protocol: In addition, the corrosion rate of copper in the presence of benzimidazole, tolyltriazole, imidazole, pyrimidine, 6,6-dimethyladenine, and 6-methylpurine was determined using linear polarization resistance measurements. […] For each experiment, cylindrical copper coupons pre-polished using SIC 600 paper and fitted on a Pine rotator were immersed in a solution of corrosion inhibitor. […] The pH of the test water was maintained at 7.0 using carbon dioxide, and the water temperature was maintained at 45° C. throughout the experiment. […] Density: 8.92 g/cm^3; Copper Eq. Weight: 63.54 g; and Initial delay: 30 seconds. Next, the copper samples were exposed to a 25% bleach solution. […] The Rp in the absence and presence of bleach was collected and analyzed, and the average corrosion rate was calculated and recorded in Table 1. Corrosion rates were calculated in mils per year (mpy).

c1ccc2[nH]cnc2c1 [Compound 6, Benzimidazole]
No FRC Corrosion Rate (mpy): 0.0890 mpy | 1 ppm FRC Corrosion Rate (mpy): 0.9594 mpy

Nc1ncnc2nc[nH]c12 [Compound 5, Adenine]
change of copper corrosion rate upon the addition of bleach (1 ppm FRC): observed increase | No FRC Corrosion Rate (mpy): 0.1665 mpy | No FRC Corrosion Rate (mpy) (listed as adenine): 0.16 mpy | 1 ppm FRC Corrosion Rate (mpy): 0.3571 mpy | 1 ppm FRC Corrosion Rate (mpy) (listed as adenine): 0.35 mpy

c1cncnc1 [Compound 9, Pyrimidine]
No FRC Corrosion Rate (mpy): 1.2 mpy | 1 ppm FRC Corrosion Rate (mpy): 0.79 mpy

Cc1ncnc2nc[nH]c12 [Compound 11, 6-Methylpurine]
No FRC Corrosion Rate (mpy): 0.74 mpy | 1 ppm FRC Corrosion Rate (mpy): 0.44 mpy

Oc1ncnc2nc[nH]c12 [Compound 4, Hypoxanthine]
No FRC Corrosion Rate (mpy): 0.1036 mpy | 1 ppm FRC Corrosion Rate (mpy): 0.1684 mpy

CN(C)c1ncnc2nc[nH]c12 [Compound 10, 6,6-Dimethyladenine]
No FRC Corrosion Rate (mpy): 0.68 mpy | 1 ppm FRC Corrosion Rate (mpy): 0.66 mpy

c1c[nH]cn1 [Compound 8, Imidazole]
No FRC Corrosion Rate (mpy): 0.69 mpy | 1 ppm FRC Corrosion Rate (mpy): 1.1 mpy

Tolyltriazole [Compound 7]
No FRC Corrosion Rate (mpy): 0.0214 mpy | 1 ppm FRC Corrosion Rate (mpy): 0.0995 mpy

Clc1ncnc2nc[nH]c12 [Compound 3, 6-Chloropurine]
No FRC Corrosion Rate (mpy): 0.04 mpy | 1 ppm FRC Corrosion Rate (mpy): 0.16 mpy

Reference: patent US10669637B2, “Purine-based corrosion inhibitors” (Ecolab USA Inc., priority 2015, dated 2020)
